Measured values published in PubChem BioAssay (NCI).
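Compound exposure: 48 hours, 5 concentrations, 96-well plates. Definition used: TGI = concentration required for complete inhibition of growth.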

Experiments:
Assay in all cases: NCI anticancer screen, dose series, 48 h
LXFL 529 NSCLC = system: LXFL 529 NSCLC
A498 renal = system: A498 renal
COLO 205 colon = system: COLO 205 colon
OVCAR-8 ovarian = system: OVCAR-8 ovarian
XF 498 CNS = system: XF 498 CNS
SF-539 CNS = system: SF-539 CNS
KM12 colon = system: KM12 colon
RXF 393 renal = system: RXF 393 renal
UACC-62 melanoma = system: UACC-62 melanoma
SNB-19 CNS = system: SNB-19 CNS
OVCAR-3 ovarian = system: OVCAR-3 ovarian
SK-MEL-28 melanoma = system: SK-MEL-28 melanoma
HOP-92 NSCLC = system: HOP-92 NSCLC
HOP-18 NSCLC = system: HOP-18 NSCLC
OVCAR-4 ovarian = system: OVCAR-4 ovarian
CCRF-CEM leukemia = system: CCRF-CEM leukemia
SF-295 CNS = system: SF-295 CNS
DLD-1 colon = system: DLD-1 colon
HT29 colon = system: HT29 colon
DMS 114 small cell lung = system: DMS 114 small cell lung
HCC-2998 colon = system: HCC-2998 colon
NCI-H460 lung = system: NCI-H460 lung
M19-MEL melanoma = system: M19-MEL melanoma
CAKI-1 renal = system: CAKI-1 renal
NCI-H226 lung = system: NCI-H226 lung
KM20L2 colon = system: KM20L2 colon
SNB-75 CNS = system: SNB-75 CNS
LOX IMVI melanoma = system: LOX IMVI melanoma
HCT-116 colon = system: HCT-116 colon
SNB-78 CNS = system: SNB-78 CNS
SK-MEL-2 melanoma = system: SK-MEL-2 melanoma
SW-620 colon = system: SW-620 colon
HOP-62 NSCLC = system: HOP-62 NSCLC
HL-60(TB) leukemia = system: HL-60(TB) leukemia
MALME-3M melanoma = system: MALME-3M melanoma
SK-MEL-5 melanoma = system: SK-MEL-5 melanoma
IGROV1 ovarian = system: IGROV1 ovarian
RPMI-8226 leukemia = system: RPMI-8226 leukemia
SF-268 CNS = system: SF-268 CNS
EKVX NSCLC = system: EKVX NSCLC
OVCAR-5 ovarian = system: OVCAR-5 ovarian
MOLT-4 leukemia = system: MOLT-4 leukemia
TK-10 renal = system: TK-10 renal
UACC-257 melanoma = system: UACC-257 melanoma
U251 CNS = system: U251 CNS
NCI-H23 lung = system: NCI-H23 lung
UO-31 renal = system: UO-31 renal
NCI-H522 lung = system: NCI-H522 lung
M14 melanoma = system: M14 melanoma
786-0 renal = system: 786-0 renal
DMS 273 small cell lung = system: DMS 273 small cell lung
SN12C renal = system: SN12C renal
A549 NSCLC = system: A549 NSCLC
SK-OV-3 ovarian = system: SK-OV-3 ovarian
K-562 leukemia = system: K-562 leukemia
ACHN renal = system: ACHN renal
MCF7 breast = system: MCF7 breast
HCT-15 colon = system: HCT-15 colon
DU-145 prostate = system: DU-145 prostate
MDA-MB-231 breast = system: MDA-MB-231 breast
BT-549 breast = system: BT-549 breast
T-47D breast = system: T-47D breast
NCI/ADR-RES ovarian = system: NCI/ADR-RES ovarian
HS 578T breast = system: HS 578T breast
PC-3 prostate = system: PC-3 prostate
MDA-MB-435 = system: MDA-MB-435
SR leukemia = system: SR leukemia

Measured: TGI

COC(c1ccccc1)C(c1ccccc1)N1CCOCC1 (centres undefined)
not listed: MCF7 breast | HCT-15 colon | DU-145 prostate | MDA-MB-231 breast | BT-549 breast | T-47D breast | NCI/ADR-RES ovarian | HS 578T breast | PC-3 prostate | MDA-MB-435 | SR leukemia
> 100 µM: all other assays above

NC(N)=NS(=O)(=O)c1ccc(NC(=O)c2cccc3c(=O)c4ccccc4[nH]c23)cc1
> 56.2 µM: K-562 leukemia
51.3 µM: SNB-75 CNS
> 92.6 µM: 786-0 renal
69.2 µM: U251 CNS
> 31.6 µM: CCRF-CEM leukemia
> 91.9 µM: SK-OV-3 ovarian
> 81.2 µM: TK-10 renal
> 96.2 µM: HOP-92 NSCLC
> 80.3 µM: RXF 393 renal
> 100 µM: all other assays above

CCCCCCc1cc2c(C)c(C)c(=O)oc2cc1OCCCOc1cc2oc(=O)c(C)c(C)c2cc1CCCCCC
not listed: COLO 205 colon | OVCAR-4 ovarian | HCC-2998 colon | NCI-H226 lung | SNB-75 CNS | SN12C renal | ACHN renal | MCF7 breast | DU-145 prostate | MDA-MB-231 breast | BT-549 breast | T-47D breast | NCI/ADR-RES ovarian | HS 578T breast | PC-3 prostate | MDA-MB-435
> 100 µM: all other assays above
